Type in all cases: cell-based, guinea pig (male Hartley)
Experiment [1] has as its target T1, muscarinic receptor (atrium, cardiac) (Cavia porcellus, UniProt H0VRN8).
T1 construct: from tissue; host or cells: guinea-pig isolated atria (male Hartley)
T1 sequence (H0VRN8 1-466): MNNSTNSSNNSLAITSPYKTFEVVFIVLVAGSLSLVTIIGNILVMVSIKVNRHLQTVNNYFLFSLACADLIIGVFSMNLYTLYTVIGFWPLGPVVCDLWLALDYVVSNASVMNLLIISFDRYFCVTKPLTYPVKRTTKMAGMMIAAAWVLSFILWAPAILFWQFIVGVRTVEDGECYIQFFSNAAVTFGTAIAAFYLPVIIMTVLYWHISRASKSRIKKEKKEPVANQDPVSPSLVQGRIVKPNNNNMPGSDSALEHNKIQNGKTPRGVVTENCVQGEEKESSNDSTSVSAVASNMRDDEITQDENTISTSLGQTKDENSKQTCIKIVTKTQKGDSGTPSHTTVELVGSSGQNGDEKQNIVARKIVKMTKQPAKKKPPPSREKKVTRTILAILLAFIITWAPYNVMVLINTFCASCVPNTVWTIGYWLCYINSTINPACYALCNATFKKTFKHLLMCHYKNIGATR
Briefly: Anticholinergic action in guinea-pig atria (antagonism of ACh response, Schild method). The following applies: for Kb: read-out: Anticholinergic activity (pA2) Atrium (converted). Here is the method:
(§1) 1. Anticholinergic action in guinea-pig ileum and atria Male Hartley guinea pigs were sacrificed by blowing on the head and bleeding.
The isolated atria were suspended under 0.5 g tension in organ baths containing Tyrode solution gassed with 95% O2 and 5% CO2 at 32° C.
Dose-response curves were obtained by cumulative addition of ACh and repeated in the presence of various concentrations of test compounds, allowing 10 min. equilibration time.
The affinity of test compounds were determined as described for ileum.

Experiment [2] has as its target T2, muscarinic receptor (trachea) (Cavia porcellus, UniProt H0W1Z3).
T2 construct: from tissue; host or cells: guinea-pig tracheal ring strips (male Hartley)
Briefly: Anticholinergic action in guinea-pig trachea (antagonism of ACh response, Schild or van Rossum method). Particulars: Tyrode solution, 37° C., 10 minutes equilibration, read-out: Anticholinergic activity (pA2) Trachea (converted). Here is the method:
4. Anticholinergic action in guinea-pig trachea Male Hartley guinea-pigs were killed by blowing on the head and bleeding.
Ring strips of trachea were suspended in organ bath filled with Tyrode solution, kept at 37° C. and gassed with a mixture of 95% O2 and 5% CO2.
Responses to ACh were isometrically recorded under a tension of 1 g. Concentration-Response curves were obtained cumulative addition of ACh and repeated in the presence of various concentrations of test compounds, allowing 10 minutes equilibration time.

For experiment [3], the target named is T3, muscarinic receptor (ileum) (Cavia porcellus, UniProt H0W1Z3).
T3 construct: from tissue; host or cells: guinea-pig ileal segments (male Hartley)
Briefly: Anticholinergic action in guinea-pig ileum (antagonism of ACh response, Schild method). The following applies: ileum, Tyrode solution, 32° C., test compound 5 min. before ACh; for Kb: read-out: Anticholinergic activity (pA2) Ileum (converted). On the procedure: as §1
(§2) Responses to acetyllchlloline (ACh) added cumulatively to the baths were isotonically recorded under a tension of 1 g. Dose-response curves of ACh were determined in the absence and presence of test compounds in various concentrations added to the baths 5 min. before ACh application.

Experiment [4] deals with muscarinic receptor (ileum). The experiment is described as above. The following applies: ileum versus heart. On the procedure: as §1, §2
[5] abbreviates: Table 8, isolated atria, Tyrode solution, 32° C., 10 min. equilibration.

SMILES strings stand for the structures. Like-named read-outs stand apart in the source and are kept apart here.

T2 sequence (H0W1Z3 1-590): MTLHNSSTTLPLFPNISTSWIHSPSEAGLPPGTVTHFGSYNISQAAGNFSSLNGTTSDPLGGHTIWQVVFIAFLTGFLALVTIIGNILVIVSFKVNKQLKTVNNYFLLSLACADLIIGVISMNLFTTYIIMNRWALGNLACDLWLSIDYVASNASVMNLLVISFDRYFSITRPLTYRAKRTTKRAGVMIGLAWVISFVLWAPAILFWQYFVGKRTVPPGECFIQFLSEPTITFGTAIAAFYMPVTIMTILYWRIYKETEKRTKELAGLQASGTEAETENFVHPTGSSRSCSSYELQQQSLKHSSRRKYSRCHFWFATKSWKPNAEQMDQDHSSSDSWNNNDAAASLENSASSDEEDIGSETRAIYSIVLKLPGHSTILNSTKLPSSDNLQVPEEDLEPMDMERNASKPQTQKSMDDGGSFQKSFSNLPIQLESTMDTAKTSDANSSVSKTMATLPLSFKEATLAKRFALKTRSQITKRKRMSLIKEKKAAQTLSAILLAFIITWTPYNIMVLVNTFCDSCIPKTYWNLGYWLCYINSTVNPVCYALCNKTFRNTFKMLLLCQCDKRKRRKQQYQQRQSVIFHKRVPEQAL
T3 sequence (H0W1Z3 1-590): as above

On to `Cc1n(CCC(C(N)=O)(c2ccccc2)c2ccccc2)cc[n+]1Cc1ccc(-c2ccccc2)cc1` [Example 50], for which the Kb was 30.2 nM in experiment [1] (Table 9, atrium) and 4.57 nM in experiment [2].

As for `Cc1nccn1CCCCC(C#N)(c1ccccc1)c1ccccc1` [Example 8], the “Anticholinergic activity (pA2) Ileum” value in experiment [3] is 8.17. Also, in experiment [4], the “affinity for receptors in ileum as compared to receptors in heart” value (“affinity … compared to receptors in heart” below) is reported as 10 times. The “Anticholinergic activity (pA2) Atrium” value in experiment [1] (setting [5]) turned out to be 7.08.

With `CC(C)c1nccn1CCC(C(N)=O)(c1ccccc1)c1ccccc1` [Example 14, 4-(2-isopropyl-1-imidazolyl)-2,2-diphenylbutylamide], the Kb in experiment [3] was 0.676 nM; in experiment [1] (setting [5]), 18.6 nM. In addition, the “affinity … compared to receptors in heart” value in experiment [4] was 10 times.

As to `Cc1nccn1CCC(C(N)=O)(c1ccccc1)c1ccccc1` [Example 11, 4-(2-Methyl-1-imidazolyl)-2,2-diphenylbutylamide], the “affinity … compared to receptors in heart” value in experiment [4] is 10 times.

As for `Cc1nccn1CCCC(C#N)(c1ccccc1)c1ccccc1` [Example 7], the Kb in experiment [3] was 1.12 nM; in experiment [1] (setting [5]), 6.17 nM.

Take `CCN(CC)CC#CCOC(=O)C(O)(c1ccccc1)C1CCCCC1` (stereo not shown) [Oxybutynin, reference compound]: the Kb in experiment [1] (setting [5]) is 4.07 nM.

With `Cc1n(CCCCC(C(N)=O)(c2ccccc2)c2ccccc2)cc[n+]1Cc1ccccc1` [Example 51], the Kb in experiment [1] (Table 9, atrium) was 20 nM; in experiment [2], 4.57 nM.

With `Cc1n(CCC(C(N)=O)(c2ccccc2)c2ccccc2)cc[n+]1Cc1ccc(F)c(F)c1` [Example 44], the Kb in experiment [1] (Table 9, atrium) was 28.8 nM; in experiment [2], 5.25 nM.

The values above are taken from US5932607A, “Imidazole derivatives and process for preparing the same” (Kyorin Pharmaceutical Co., Ltd., priority 1993, dated 1999).
